In the NIST ThermoML archive (doi:10.1021/je050294+):
Numbers after ± are expanded uncertainties.

How the values were obtained:
[1] = xn = mol fraction of the nth substance listed; details: Liquid; for speed of sound: Linear variable-path acoustic interferometer; for mass density: Vibrating tube method
[2] = excess molar enthalpy (molar enthalpy of mixing); xn = mol fraction of the nth substance listed; details: 101 kPa, Liquid, Flow calorimetry

C=C1CCC2CC1C2(C)C (stereo not drawn) [β-pinene] + CCC(C)O
[1], 101.3 kPa
Details	mass density [kg/m3]	speed of sound [m/s]
283.15 K, x1 = 0.0526	820.26 ± 0.43	1271.9 ± 1.7
283.15 K, x1 = 0.1031	824.88 ± 0.43	1276.6 ± 1.7
283.15 K, x1 = 0.2058	833.37 ± 0.43	1285.1 ± 1.8
283.15 K, x1 = 0.3006	840.38 ± 0.43	1292.5 ± 1.8
283.15 K, x1 = 0.4019	847.14 ± 0.44	1299.8 ± 1.8
283.15 K, x1 = 0.5035	853.29 ± 0.44	1307.2 ± 1.8
283.15 K, x1 = 0.6023	858.87 ± 0.44	1314.9 ± 1.8
283.15 K, x1 = 0.7047	864.32 ± 0.44	1323.5 ± 1.8
283.15 K, x1 = 0.7995	869.14 ± 0.45	1332.4 ± 1.8
283.15 K, x1 = 0.8988	873.93 ± 0.45	1342.4 ± 1.8
283.15 K, x1 = 0.9401	875.92 ± 0.45	1347 ± 1.8
298.15 K, x1 = 0.0522	807.98 ± 0.42	1216.6 ± 1.7
298.15 K, x1 = 0.105	812.54 ± 0.42	1220.2 ± 1.7
298.15 K, x1 = 0.206	820.79 ± 0.43	1227.3 ± 1.7
298.15 K, x1 = 0.3006	827.65 ± 0.43	1233.5 ± 1.7
298.15 K, x1 = 0.3995	834.25 ± 0.43	1240 ± 1.7
298.15 K, x1 = 0.5017	840.58 ± 0.43	1247.2 ± 1.7
298.15 K, x1 = 0.6096	846.71 ± 0.44	1255.5 ± 1.7
298.15 K, x1 = 0.7011	851.61 ± 0.44	1263 ± 1.7
298.15 K, x1 = 0.8035	856.93 ± 0.44	1272.5 ± 1.7
298.15 K, x1 = 0.9067	862.02 ± 0.44	1282.6 ± 1.8
298.15 K, x1 = 0.9449	863.9 ± 0.44	1287 ± 1.8
313.15 K, x1 = 0.0526	794.95 ± 0.42	1161.7 ± 1.7
313.15 K, x1 = 0.0997	799.22 ± 0.42	1164.1 ± 1.7
313.15 K, x1 = 0.2028	807.25 ± 0.42	1170.4 ± 1.7
313.15 K, x1 = 0.2999	814.22 ± 0.42	1175.7 ± 1.7
313.15 K, x1 = 0.4043	821.27 ± 0.43	1182.5 ± 1.7
313.15 K, x1 = 0.5088	827.69 ± 0.43	1189.9 ± 1.7
313.15 K, x1 = 0.6027	833.19 ± 0.43	1197 ± 1.7
313.15 K, x1 = 0.6993	838.59 ± 0.43	1205 ± 1.7
313.15 K, x1 = 0.8035	844.16 ± 0.44	1214.6 ± 1.7
313.15 K, x1 = 0.896	848.93 ± 0.44	1223.2 ± 1.7
313.15 K, x1 = 0.9453	851.52 ± 0.44	1228.7 ± 1.7

excess molar enthalpy [kcal/mol], [2]
Details	283.15 K	298.15 K	313.15 K
x1 = 0.066	0.0306 ± 0.00143	0.0413 ± 0.00191	0.0397 ± 0.00191
x1 = 0.134	0.0629 ± 0.00167	0.087 ± 0.00167	0.0968 ± 0.00191
x1 = 0.259	0.111 ± 0.00191	0.152 ± 0.00191	0.179 ± 0.00215
x1 = 0.38	0.143 ± 0.00215	0.196 ± 0.00239	0.234 ± 0.00239
x1 = 0.489	0.164 ± 0.00239	0.223 ± 0.00239	0.2682 ± 0.00263
x1 = 0.581	0.172 ± 0.00239	0.232 ± 0.00263	0.2806 ± 0.00263
x1 = 0.677	0.169 ± 0.00239	0.227 ± 0.00239	0.2768 ± 0.00263
x1 = 0.765	0.155 ± 0.00215	0.208 ± 0.00239	0.257 ± 0.00263
x1 = 0.845	0.131 ± 0.00215	0.177 ± 0.00239	0.223 ± 0.00263
x1 = 0.927	0.0925 ± 0.00191	0.127 ± 0.00215	0.161 ± 0.00263
x1 = 0.963	0.0669 ± 0.00191	0.0903 ± 0.00239	0.112 ± 0.00311

C=C1CCC2CC1C2(C)C (stereo not drawn) [β-pinene] + CCCCO
[1], 101 kPa
Details	mass density [kg/m3]	speed of sound [m/s]
283.15 K, x1 = 0.0494	822.4 ± 0.14	1295.8 ± 1.5
283.15 K, x1 = 0.1023	827.32 ± 0.15	1299.6 ± 1.5
283.15 K, x1 = 0.204	835.8 ± 0.18	1305.9 ± 1.5
283.15 K, x1 = 0.3052	843.23 ± 0.21	1311.7 ± 1.5
283.15 K, x1 = 0.4007	849.5 ± 0.24	1316.8 ± 1.5
283.15 K, x1 = 0.5005	855.39 ± 0.27	1321.9 ± 1.6
283.15 K, x1 = 0.5929	–	1323.6 ± 1.6
283.15 K, x1 = 0.695	865.44 ± 0.34	1332 ± 1.7
283.15 K, x1 = 0.7975	870.17 ± 0.38	1338.1 ± 1.7
283.15 K, x1 = 0.9009	874.7 ± 0.41	1345.2 ± 1.7
283.15 K, x1 = 0.9179	875.44 ± 0.42	1347.3 ± 1.8
298.15 K, x1 = 0.054	811.4 ± 0.15	1243.7 ± 1.4
298.15 K, x1 = 0.1027	815.79 ± 0.16	1246.2 ± 1.4
298.15 K, x1 = 0.1893	822.86 ± 0.18	1250.3 ± 1.4
298.15 K, x1 = 0.2992	830.92 ± 0.21	1255.2 ± 1.5
298.15 K, x1 = 0.4011	837.49 ± 0.24	1259.4 ± 1.5
298.15 K, x1 = 0.4987	843.18 ± 0.27	1263.5 ± 1.5
298.15 K, x1 = 0.6041	848.79 ± 0.31	1268.1 ± 1.6
298.15 K, x1 = 0.6946	853.25 ± 0.34	1272.3 ± 1.6
298.15 K, x1 = 0.7745	856.95 ± 0.36	1276.6 ± 1.6
298.15 K, x1 = 0.9003	862.46 ± 0.41	1284.6 ± 1.7
298.15 K, x1 = 0.9349	863.93 ± 0.42	1287.4 ± 1.7
313.15 K, x1 = 0.0493	799.21 ± 0.15	1193.1 ± 1.4
313.15 K, x1 = 0.1011	803.76 ± 0.16	1194.6 ± 1.4
313.15 K, x1 = 0.1988	811.57 ± 0.18	1197.8 ± 1.4
313.15 K, x1 = 0.3012	818.82 ± 0.21	1201 ± 1.4
313.15 K, x1 = 0.3998	825.01 ± 0.24	1203.9 ± 1.5
313.15 K, x1 = 0.5009	830.84 ± 0.27	1207.3 ± 1.5
313.15 K, x1 = 0.6003	836.12 ± 0.3	1211.4 ± 1.5
313.15 K, x1 = 0.7062	841.36 ± 0.34	1216.2 ± 1.6
313.15 K, x1 = 0.8017	845.7 ± 0.37	1221.1 ± 1.6
313.15 K, x1 = 0.8988	850.1 ± 0.4	1227.1 ± 1.7
313.15 K, x1 = 0.954	852.44 ± 0.42	1231.4 ± 1.7

excess molar enthalpy [kcal/mol], [2]
Details	283.15 K	298.15 K	313.15 K
x1 = 0.066	0.0117 ± 0.0012	0.0165 ± 0.0012	0.0213 ± 0.0012
x1 = 0.134	0.0253 ± 0.0012	0.0366 ± 0.0012	0.0468 ± 0.00143
x1 = 0.259	0.0514 ± 0.00143	0.0741 ± 0.00143	0.102 ± 0.00167
x1 = 0.371	0.0724 ± 0.00143	0.102 ± 0.00167	0.137 ± 0.00191
x1 = 0.489	0.0901 ± 0.00167	0.125 ± 0.00191	0.17 ± 0.00215
x1 = 0.591	0.101 ± 0.00167	0.138 ± 0.00191	0.186 ± 0.00215
x1 = 0.677	0.105 ± 0.00167	0.141 ± 0.00191	0.19 ± 0.00215
x1 = 0.765	0.0985 ± 0.00167	0.133 ± 0.00191	0.179 ± 0.00215
x1 = 0.856	0.0846 ± 0.00143	0.114 ± 0.00167	0.153 ± 0.00191
x1 = 0.927	0.0674 ± 0.00143	0.0889 ± 0.00167	0.116 ± 0.00191
x1 = 0.975	0.0435 ± 0.00167	0.0667 ± 0.00167	0.0786 ± 0.00191
